Experimental data as given in patent publication US20030181436A1, “Treatment for AIDS, HIV, and other related diseases and compounds for use therewith” (priority 2001, published 2003).

System: TNFα induced ACH-2 cells (HIV IIIB provirus)
Experiment: ACH-2 latent infection assay, supernatant reverse transcriptase activity
Format: cell-based
Design: % VC (percent of virus control): unit not given here
Protocol: U1 and ACH-2 cells were obtained from the AIDS Research and Reference Reagent Program and maintained under standard culture conditions in RPMI 1640 supplemented with 10% fetal bovine serum (heat inactivated), supplemented with 2 mM […], 100U/ml penicillin and 100 μg/ml, streptomycin. U1 cells were derived from the histocytic leukemia cell line U937, and contain a single integrated copy (HIV IIIB) […] a cytokine and/or phorbol inducible provirus. ACH-2 cells are derived from the A3.01 T lymphoblastic cell line, and contain 2 copies of the HIV IIIB provirus, however only one is cytokine and/or phorbol inducible. Cultures were maintained in such a way as to ensure exponential growth of the populations. At the time of the assay, cells were collected by centrifugation and counted by hemacytometer. If cell viability by Trypan Blue dye exclusion was less than 70% the assay was terminated. The cells were adjusted to 5×10^4 cells/mL and 100 μL, placed in 96 well plates with 100 μL media containing a final concentration of […] TNFα and the test compound. Cultures were incubated for 3 days and supernatants harvested. Compound toxicity was determined by MTS dye reduction. Virus expression was measured by supernatant reverse transcriptasc activity.
Reverse transcriptase activity was measured in cell-free supernatants. Tritiated thymidine triphosphate (NEN) (TTP) was resuspended in distilled H2O at 5 Ci/mL. Poly rA and oligo dT were prepared as a stock solution which was kept at −20° C. The RT reaction buffer was prepared fresh on a daily basis and consists of 125 μL 1.0 M EGTA, 125 μL dH2O, 110 μL 10% SDS, 50 μL 1.0 M Tris (pH 7.4), 50 μL, 1.0 M DTT, and 40 μL 1.0 M MgCl2. These three solutions were mixed together in a ratio of 2 parts TTP, 1 part poly rA:oligo dT, and 1 part reaction buffer. Ten microliters of this reaction mixture was placed in a round bottom microtiter plate and 15 μL of virus containing supernatant was added and mixed. The plate was incubated at 37° C. in a water bath with a solid support to prevent submersion of the plate and incubated for 60 minutes. Following reaction, the reaction volume was spotted onto pieces of DE81 paper, washed 5 times for 5 minutes each in a 5% sodium phosphate buffer, 2 times for 1 minute each in distilled water, 2 times for 1 minute each in 70% ethanol, and then dried. Opti-Fluor O was added to each sample and incorporated radioactivity was quantitated utilizing a Wallac 1450 Microbetaplus liquid scintillation counter.

Potassium Iodiscorbate [Compound K]
% VC (percent of virus control) (0.00063 uM, exp 2): 114.4
RT ACTIVITY (cpm) MEAN (0.00063 uM, exp 2): 22470 cpm
% VC (percent of virus control) (0.002 uM, exp 2): 98.0
RT ACTIVITY (cpm) MEAN (0.002 uM, exp 2): 19246 cpm
% VC (percent of virus control) (0.00625 uM, exp 2): 105.2
RT ACTIVITY (cpm) MEAN (0.00625 uM, exp 2): 20672 cpm
% VC (percent of virus control) (0.02 uM, exp 2): 125.7
RT ACTIVITY (cpm) MEAN (0.02 uM, exp 2): 24682 cpm
% VC (percent of virus control) (0.0625 uM, exp 2): 119.1
RT ACTIVITY (cpm) MEAN (0.0625 uM, exp 2): 23403 cpm
% VC (percent of virus control) (0.2 uM, exp 2): 115.0
RT ACTIVITY (cpm) MEAN (0.2 uM, exp 2): 22593 cpm
% VC (percent of virus control) (0.625 uM, exp 2): 97.7
RT ACTIVITY (cpm) MEAN (0.625 uM, exp 2): 19189 cpm
% VC (percent of virus control) (2 uM, exp 2): 93.6
RT ACTIVITY (cpm) MEAN (2 uM, exp 2): 18381 cpm
% VC (percent of virus control) (6.25 uM, exp 2): 32.7
RT ACTIVITY (cpm) MEAN (6.25 uM, exp 2): 6432 cpm
% VC (percent of virus control) (20 uM, exp 2): 15.3
RT ACTIVITY (cpm) MEAN (20 uM, exp 2): 3011 cpm
% VC (percent of virus control) (62.5 uM, exp 2): 0.58
RT ACTIVITY (cpm) MEAN (62.5 uM, exp 2): 113 cpm
% VC (percent of virus control) (200 uM, exp 2): 0.55
RT ACTIVITY (cpm) MEAN (200 uM, exp 2): 108 cpm

Zinc Iodiscorbate [Compound Z]
activity in the ACH-2 assay: inactive
% VC (0.00063 μg/ml, exp 2): 96.4%
RT ACTIVITY MEAN (0.00063 μg/ml, exp 2): 18594 cpm
% VC (0.002 μg/ml, exp 2): 106.4%
RT ACTIVITY MEAN (0.002 μg/ml, exp 2): 20516 cpm
% VC (0.00625 μg/ml, exp 2): 100.6%
RT ACTIVITY MEAN (0.00625 μg/ml, exp 2): 19411 cpm
% VC (0.02 μg/ml, exp 2): 116.0%
RT ACTIVITY MEAN (0.02 μg/ml, exp 2): 22382 cpm
% VC (0.0625 μg/ml, exp 2): 111.6%
RT ACTIVITY MEAN (0.0625 μg/ml, exp 2): 21532 cpm
% VC (0.2 μg/ml, exp 2): 114.0%
RT ACTIVITY MEAN (0.2 μg/ml, exp 2): 21983 cpm
% VC (0.625 μg/ml, exp 2): 104.2%
RT ACTIVITY MEAN (0.625 μg/ml, exp 2): 20108 cpm
% VC (2 μg/ml, exp 2): 104.5%
RT ACTIVITY MEAN (2 μg/ml, exp 2): 20151 cpm
% VC (6.25 μg/ml, exp 2): 60.8%
RT ACTIVITY MEAN (6.25 μg/ml, exp 2): 11729 cpm
% VC (20 μg/ml, exp 2): 5.1%
RT ACTIVITY MEAN (20 μg/ml, exp 2): 982 cpm
% VC (62.5 μg/ml, exp 2): 0.83%
RT ACTIVITY MEAN (62.5 μg/ml, exp 2): 160 cpm
% VC (200 μg/ml, exp 2): 0.41%
RT ACTIVITY MEAN (200 μg/ml, exp 2): 80 cpm
% VC (0.00063 μG/Ml, exp 1): 107.6%
RT ACTIVITY (cpm) MEAN (0.00063 μG/Ml, exp 1): 71887 cpm
% VC (0.002 μG/Ml [c9], exp 1): 107.8%
RT ACTIVITY (cpm) MEAN (0.002 μG/Ml [c9], exp 1): 71981 cpm
% VC (0.002 μG/Ml [c11], exp 1): 107.5%
RT ACTIVITY (cpm) MEAN (0.002 μG/Ml [c11], exp 1): 71843 cpm
% VC (0.00625 μG/Ml, exp 1): 93.3%
RT ACTIVITY (cpm) MEAN (0.00625 μG/Ml, exp 1): 62338 cpm
% VC (0.0625 μG/Ml, exp 1): 123.3%
RT ACTIVITY (cpm) MEAN (0.0625 μG/Ml, exp 1): 82351 cpm
% VC (0.2 μG/Ml, exp 1): 116.0%
RT ACTIVITY (cpm) MEAN (0.2 μG/Ml, exp 1): 77521 cpm
% VC (0.625 μG/Ml, exp 1): 118.9%
RT ACTIVITY (cpm) MEAN (0.625 μG/Ml, exp 1): 79421 cpm
% VC (2 μG/Ml, exp 1): 114.0%
RT ACTIVITY (cpm) MEAN (2 μG/Ml, exp 1): 76125 cpm
% VC (6.25 μG/Ml, exp 1): 112.7%
RT ACTIVITY (cpm) MEAN (6.25 μG/Ml, exp 1): 75319 cpm
% VC (20 μG/Ml, exp 1): 107.9%
RT ACTIVITY (cpm) MEAN (20 μG/Ml, exp 1): 72063 cpm
% VC (62.5 μG/Ml, exp 1): 3.27%
RT ACTIVITY (cpm) MEAN (62.5 μG/Ml, exp 1): 2186 cpm
% VC (200 μG/Ml, exp 1): 2.23%
RT ACTIVITY (cpm) MEAN (200 μG/Ml, exp 1): 1487 cpm
IC50 (ACH2, exp 1, Table 2): IC50 (μG/Ml) = 43.51
IC50 (ACH-2, experiment 1, Table 1): 43.5 µg/mL
IC50 (ACH-2, experiment 2, Table 1): 8.9 µg/mL
ACH2 EC50 (exp 2, Table 4): 8.9 µg/mL
